Source: ChEMBL document CHEMBL3774384, “Synthesis of fusidic acid bioisosteres as antiplasmodial agents and molecular docking studies in the binding site of elongation factor-G” (Medchemcomm, 2015)
pIC50: −log10 of the molar value. Values belong to the compound of their own block, whether it stands above or below them.

How the values were obtained:
Plasmodium falciparum [1] = assay: Antiplasmodial activity against chloroquine sensitive Plasmodium falciparum NF54 infected in human RBC after 48 hrs by [3H]hypoxanthine incorporation assay; type: functional, organism-based
CHO = assay: Cytotoxicity against CHO assessed as cell viability after 48 hrs by MTT assay; type: cell-based; conditions: Cricetulus griseus
[2] = Selectivity index, ratio of IC50 for CHO cells to IC50 for Plasmodium falciparum NF54; type: toxicity, cell-based; conditions: hamster, read-out: Ratio IC50
Plasmodium falciparum [3] = assay: Antiplasmodial activity against Plasmodium falciparum D10 infected in human RBC after 48 to 96 hrs by SYBR Green I dye-based fluorescence assay; type: functional, organism-based
[4] = Stability in RPMI medium supplemented with HEPES, NaHCO3, Neomycin and Albumax II after 48 hrs; type: physicochemical

SMILES: CCCS(=O)(=O)NNC(=O)/C(CCC=C(C)C)=C1\[C@@H](OC(C)=O)C[C@@]2(C)[C@H]1C[C@@H](O)[C@H]1[C@@]3(C)CC[C@@H](O)[C@@H](C)[C@@H]3CC[C@@]12C
- pIC50 (Plasmodium falciparum [1]): 5.24
- pIC50 (CHO): 4.10
- selectivity ratio [2]: 14

SMILES: CC(=O)O[C@H]1C[C@@]2(C)[C@@H](C[C@@H](O)[C@H]3[C@@]4(C)CC[C@@H](O)[C@@H](C)[C@@H]4CC[C@@]32C)/C1=C(\CCC=C(C)C)C(=O)NNS(=O)(=O)c1ccc(C)cc1
- pIC50 (Plasmodium falciparum [1]): 4.87
- pIC50 (CHO): 4.32
- selectivity ratio [2]: 4

SMILES: C[C@H]1[C@H](OC(=O)CCC(=O)O)O[C@@H]2O[C@@]3(C)CC[C@H]4[C@H](C)CC[C@@H]1[C@@]24OO3 [ARTESUNATE]
- pIC50 (Plasmodium falciparum [1]): 8.40

SMILES: CC(=O)O[C@H]1C[C@@]2(C)[C@@H](C[C@@H](O)[C@H]3[C@@]4(C)CC[C@@H](O)[C@@H](C)[C@@H]4CC[C@@]32C)/C1=C(\CCC=C(C)C)C(=O)NS(=O)(=O)c1ccccc1
- pIC50 (Plasmodium falciparum [1]): < 4.82
- pIC50 (CHO): 4.02

SMILES: CCS(=O)(=O)NNC(=O)/C(CCC=C(C)C)=C1\[C@@H](OC(C)=O)C[C@@]2(C)[C@H]1C[C@@H](O)[C@H]1[C@@]3(C)CC[C@@H](O)[C@@H](C)[C@@H]3CC[C@@]12C
- pIC50 (Plasmodium falciparum [1]): 4.91
- pIC50 (CHO): 4.11
- selectivity ratio [2]: 6

SMILES: CC(=O)O[C@H]1C[C@@]2(C)[C@@H](C[C@@H](O)[C@H]3[C@@]4(C)CC[C@@H](O)[C@@H](C)[C@@H]4CC[C@@]32C)/C1=C(\CCC=C(C)C)c1n[nH]c(=S)o1
- pIC50 (Plasmodium falciparum [1]): 5.15
- pIC50 (CHO): 4.15
- selectivity ratio [2]: 10

SMILES: CCc1noc(/C(CCC=C(C)C)=C2\[C@@H](OC(C)=O)C[C@@]3(C)[C@H]2C[C@@H](O)[C@H]2[C@@]4(C)CC[C@@H](O)[C@@H](C)[C@@H]4CC[C@@]23C)n1
- pIC50 (Plasmodium falciparum [1]): 5.72
- pIC50 (CHO): 4.14
- selectivity ratio [2]: 38

SMILES: CC(=O)O[C@H]1C[C@@]2(C)[C@@H](C[C@@H](O)[C@H]3[C@@]4(C)CC[C@@H](O)[C@@H](C)[C@@H]4CC[C@@]32C)/C1=C(\CCC=C(C)C)C(=O)O [FUSIDIC ACID]
- pIC50 (Plasmodium falciparum [1]): 4.23
- pIC50 (CHO): < 3.71
- selectivity ratio [2]: > 3
- pIC50 (Plasmodium falciparum [3]): 4.28
- Stability [4]: Stable

SMILES: CC(=O)O[C@H]1C[C@@]2(C)[C@@H](C[C@@H](O)[C@H]3[C@@]4(C)CC[C@@H](O)[C@@H](C)[C@@H]4CC[C@@]32C)/C1=C(\CCC=C(C)C)c1nc(-c2ccc(F)cc2)no1
- pIC50 (Plasmodium falciparum [1]): 5.77
- pIC50 (CHO): 4.11
- selectivity ratio [2]: 46

Second part, led by results:

- pIC50 (Plasmodium falciparum [1]): 5.42
SMILES: CC(=O)O[C@H]1C[C@@]2(C)[C@@H](C[C@@H](O)[C@H]3[C@@]4(C)CC[C@@H](O)[C@@H](C)[C@@H]4CC[C@@]32C)/C1=C(\CCC=C(C)C)c1nc(C)no1
- pIC50 (CHO): 4.32
- selectivity ratio [2]: 13

- pIC50 (Plasmodium falciparum [1]): 5.10
SMILES: CCCCS(=O)(=O)NNC(=O)/C(CCC=C(C)C)=C1\[C@@H](OC(C)=O)C[C@@]2(C)[C@H]1C[C@@H](O)[C@H]1[C@@]3(C)CC[C@@H](O)[C@@H](C)[C@@H]3CC[C@@]12C
- pIC50 (CHO): 4.30
- selectivity ratio [2]: 6

- pIC50 (Plasmodium falciparum [1]): 5.68
SMILES: CCCc1noc(/C(CCC=C(C)C)=C2\[C@@H](OC(C)=O)C[C@@]3(C)[C@H]2C[C@@H](O)[C@H]2[C@@]4(C)CC[C@@H](O)[C@@H](C)[C@@H]4CC[C@@]23C)n1
- pIC50 (CHO): 4.17
- selectivity ratio [2]: 32

- pIC50 (Plasmodium falciparum [1]): 5.14
SMILES: CC(=O)O[C@H]1C[C@@]2(C)[C@@H](C[C@@H](O)[C@H]3[C@@]4(C)CC[C@@H](O)[C@@H](C)[C@@H]4CC[C@@]32C)/C1=C(\CCC=C(C)C)C(=O)NS(=O)(=O)c1ccc(F)c(F)c1
- pIC50 (CHO): 4.09
- selectivity ratio [2]: 11

- pIC50 (Plasmodium falciparum [1]): < 4.82
SMILES: CC(=O)O[C@H]1C[C@@]2(C)[C@@H](C[C@@H](O)[C@H]3[C@@]4(C)CC[C@@H](O)[C@@H](C)[C@@H]4CC[C@@]32C)/C1=C(\CCC=C(C)C)C(=O)NS(C)(=O)=O
- pIC50 (CHO): < 3.77

- pIC50 (Plasmodium falciparum [1]): 4.67
SMILES: CC(=O)O[C@H]1C[C@@]2(C)[C@@H](C[C@@H](O)[C@H]3[C@@]4(C)CC[C@@H](O)[C@@H](C)[C@@H]4CC[C@@]32C)/C1=C(\CCC=C(C)C)C(=O)NN
- pIC50 (CHO): 3.95
- selectivity ratio [2]: 5

- pIC50 (Plasmodium falciparum [1]): 5.08
SMILES: CC(=O)O[C@H]1C[C@@]2(C)[C@@H](C[C@@H](O)[C@H]3[C@@]4(C)CC[C@@H](O)[C@@H](C)[C@@H]4CC[C@@]32C)/C1=C(\CCC=C(C)C)C(=O)NNC(=O)c1cccs1
- pIC50 (CHO): 4.10
- selectivity ratio [2]: 9

- pIC50 (Plasmodium falciparum [1]): < 4.82
SMILES: CC(=O)O[C@H]1C[C@@]2(C)[C@@H](C[C@@H](O)[C@H]3[C@@]4(C)CC[C@@H](O)[C@@H](C)[C@@H]4CC[C@@]32C)/C1=C(\CCC=C(C)C)C(=O)Nc1nn[nH]n1
- pIC50 (CHO): < 3.77

- pIC50 (Plasmodium falciparum [1]): 4.97
SMILES: CC(=O)O[C@H]1C[C@@]2(C)[C@@H](C[C@@H](O)[C@H]3[C@@]4(C)CC[C@@H](O)[C@@H](C)[C@@H]4CC[C@@]32C)/C1=C(\CCC=C(C)C)C(=O)NC#N
- pIC50 (CHO): < 3.73
- selectivity ratio [2]: > 17

- pIC50 (Plasmodium falciparum [1]): 4.50
SMILES: CC(=O)O[C@H]1C[C@@]2(C)[C@@H](C[C@@H](O)[C@H]3[C@@]4(C)CC[C@@H](O)[C@@H](C)[C@@H]4CC[C@@]32C)/C1=C(\CCC=C(C)C)C(=O)NNS(=O)(=O)c1ccc(Cl)cc1
- pIC50 (CHO): 4.27
- selectivity ratio [2]: 2

- pIC50 (Plasmodium falciparum [1]): 4.44
SMILES: CC(=O)O[C@H]1C[C@@]2(C)[C@@H](C[C@@H](O)[C@H]3[C@@]4(C)CC[C@@H](O)[C@@H](C)[C@@H]4CC[C@@]32C)/C1=C(\CCC=C(C)C)C(N)=O
- pIC50 (CHO): 3.95
- selectivity ratio [2]: 3

- pIC50 (Plasmodium falciparum [1]): 5.04
SMILES: CC(=O)O[C@H]1C[C@@]2(C)[C@@H](C[C@@H](O)[C@H]3[C@@]4(C)CC[C@@H](O)[C@@H](C)[C@@H]4CC[C@@]32C)/C1=C(\CCC=C(C)C)c1n[nH]c(=O)o1
- pIC50 (CHO): 4.09
- selectivity ratio [2]: 9
